Source: paper PMC6680430, “Quantitative Prediction of Human Pharmacokinetics and Pharmacodynamics of CKD519, a Potent Inhibitor of Cholesteryl Ester Transfer Protein (CETP)” (Pharmaceutics, 2019)

Tests used:
[1] = animal full PK study in rats (NCA and PK model); format: in vivo; settings: rat; for Tmax: median (range)
Procedure: Animal PK data for analysis were collected from preclinical studies performed at ChongKunDang laboratory. All animal experiments were performed with relevant guidelines and regulations, and the protocol was approved by the Institutional Animal Care and Use Committee (IACUC) of ChongKunDang (Approval number: S-13-015). A single dose of CKD519 was administered either orally or via intravenous infusion to hamsters (intravenous dose of 0.5 mg/kg, oral dose of 3, 15, or 45 mg/kg, n = 30); rats (intravenous dose of 0.5 mg/kg, oral dose of 5, 15, or 45 mg/kg, n = 20); and monkeys (intravenous dose of 0.1 mg/kg, oral dose of 1, 5, or 30 mg/kg, n = 16). The identical solution was administered to all animal species in the fasted state. Plasma CKD519 concentration was measured before and at 0.083, 0.25, 0.5, 1, 2, 4, 8, and 24 h after administration in hamsters and rats, and before and at 0.083, 0.25, 0.5, 1, 2, 4, 6, 8, 12, 24, 48, and 72 h after administration in monkeys. Two hamsters given identical doses were sampled in a rotating manner.
The plasma samples were stored at −70 °C before the analysis and were thawed at room temperature. […] A sensitive, specific, and validated liquid chromatography coupled with a tandem mass spectrometer (HPLC-MS/MS) assay was used for the determination of CKD519 concentration in animal plasma samples. A structural analogue of CKD519 was used as the internal standard. The validated working range was from 2 ng/mL (the lower limit of quantification, LLOQ) to 20,000 ng/mL. Quality control (QC) samples were analyzed together with the study samples. Intra-day and inter-day precision and accuracy results were within the acceptance criteria based on the Ministry of Food and Drug Safety (MFDS) guidelines. An exploratory data analysis was performed through non-compartmental analysis (NCA) using the NonCompart package (developed by Bae, version 0.4.4) in R (version 3.5.1, The R Foundation, Vienna, Austria).
Using the PK data from each species, nonlinear mixed-effect modeling was conducted using NONMEM (version 7.4, Icon Development Solutions, Ellicott City, MD, USA) reflecting the clues from NCA. The first-order conditional estimation method with interaction (FOCE-I) was used whenever applicable. The adequacy of the model was checked using changes in the objective function value (OFV), visual inspection of various diagnostic plots (goodness-of-fit (GOF) plot), and methods of visual predictive check (VPC) and bootstrap were used for the diagnostics on the model stability and parameter reliability. The significance of model improvement was evaluated using a likelihood-ratio test (LRT). In the nested models, the result was considered statistically significant if the OFV decreased more than 3.84 (p-value < 0.05, degree of freedom (df) = 1) and 5.99 (p-value < 0.05, df = 2). The degree of freedom is defined as the gap of the numbers of parameters of the two subsequent models that are being compared. In the case of non-nested models, the Akaike information criteria (AIC) value was used to select the model that best described the data. R (version 3.5.1., R Foundation for Statistical Computing, Vienna, Austria) was used for data preparation, NCA, graphical analysis, model diagnostics, and statistical summaries.
Initially, a two-compartment model with first-order absorption was developed to describe the biphasic curve, and several absorption structures (e.g., zero-order with absorption lag time, Weibull-type absorption) were applied to the base model if needed. The change in absolute bioavailability (F) by dose levels was also considered. […]

[2] = absolute bioavailability from first-in-human study (observed oral AUC vs predicted intravenous AUC); format: in vivo; settings: AUC ratio observed oral / predicted intravenous
From the text: The absolute bioavailability was estimated for each dose (Table 7) by comparing the AUC of the observed oral PK profile in the first-in-human study and that of the predicted human i.v. PK profile from animal PK data. […] Even though the trends were similar, absolute bioavailability estimated by the observed PK profile was less than one-fifth of the predicted bioavailability using the animal PK data. […] Delayed absorption was also found, and the difference in formulation between animals and humans was considered to have caused the delay by affecting the absorption rate. Simulated AUC, Cmax, and Tmax were within 2-folds, the range that is generally accepted for animal-to-human predictions.

[3] = molecular target: T1, cholesteryl ester transfer protein (CETP) (Homo sapiens, UniProt P11597); experiment: in vitro potency, CETP inhibition (in-house data); settings: read-out: IC50 (in vitro potency)
T1 sequence (P11597 18-493): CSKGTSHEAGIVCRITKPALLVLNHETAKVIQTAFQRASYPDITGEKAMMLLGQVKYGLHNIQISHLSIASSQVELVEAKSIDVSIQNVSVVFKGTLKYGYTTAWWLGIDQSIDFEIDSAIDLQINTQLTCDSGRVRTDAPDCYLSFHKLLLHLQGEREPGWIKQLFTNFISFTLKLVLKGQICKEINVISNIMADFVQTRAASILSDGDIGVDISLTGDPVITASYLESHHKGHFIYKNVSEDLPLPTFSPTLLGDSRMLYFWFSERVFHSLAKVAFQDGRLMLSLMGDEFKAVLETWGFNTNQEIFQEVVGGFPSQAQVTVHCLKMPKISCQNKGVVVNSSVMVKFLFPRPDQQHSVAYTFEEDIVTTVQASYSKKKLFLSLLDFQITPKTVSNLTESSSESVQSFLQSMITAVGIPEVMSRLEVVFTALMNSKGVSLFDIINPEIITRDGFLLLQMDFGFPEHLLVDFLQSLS

[4] = PK model, final estimate (%RSE)
[5] = intravenous 0.5 mg/kg, NCA, mean ± SD
[6] = two-compartment PK model, final estimate (%RSE)

α (scale parameter of Weibull absorption) [1, 4]: 3.86 (3.94%)
β (shape parameter of Weibull absorption) [1, 4]: 2.59 (4.59%)
AUClast [1, 5]: 3940 ± 585 ng·h/mL
V/F * (V for intravenous) [1, 5]: 494 ± 126 mL
ke [1, 5]: 0.0677 ± 0.0214 h⁻¹
t1/2 [1, 5]: 12.0 ± 2.98 h
Tmax ([1]; intravenous 0.5 mg/kg, NCA): 0.083 (0.083–0.083) h
AUClast ([1]; oral 5 mg/kg, NCA, mean ± SD): 6640 ± 932 ng·h/mL
CL/F ([1]; oral 5 mg/kg, NCA, mean ± SD): 188 ± 28.6 mL/h
Cmax ([1]; oral 5 mg/kg, NCA, mean ± SD): 893 ± 231 ng/mL
V/F ([1]; oral 5 mg/kg, NCA, mean ± SD): 2860 ± 1930 mL
ke ([1]; oral 5 mg/kg, NCA, mean ± SD): 0.0784 ± 0.0245 h⁻¹
t1/2 ([1]; oral 5 mg/kg, NCA, mean ± SD): 10.0 ± 4.78 h
Tmax ([1]; oral 5 mg/kg, NCA): 3 (3–4) h
AUClast ([1]; oral 15 mg/kg, NCA, mean ± SD): 11600 ± 3240 ng·h/mL
CL/F ([1]; oral 15 mg/kg, NCA, mean ± SD): 323 ± 82.8 mL/h
Cmax ([1]; oral 15 mg/kg, NCA, mean ± SD): 2040 ± 448 ng/mL
V/F ([1]; oral 15 mg/kg, NCA, mean ± SD): 4770 ± 1740 mL
ke ([1]; oral 15 mg/kg, NCA, mean ± SD): 0.0701 ± 0.0107 h⁻¹
t1/2 ([1]; oral 15 mg/kg, NCA, mean ± SD): 10.1 ± 1.82 h
Tmax ([1]; oral 15 mg/kg, NCA): 2 (2–4) h
AUClast ([1]; oral 45 mg/kg, NCA, mean ± SD): 12700 ± 1900 ng·h/mL
CL/F ([1]; oral 45 mg/kg, NCA, mean ± SD): 887 ± 140 mL/h
V/F ([1]; oral 45 mg/kg, NCA, mean ± SD): 10100 ± 1380 mL
ke ([1]; oral 45 mg/kg, NCA, mean ± SD): 0.0876 ± 0.00791 h⁻¹
t1/2 ([1]; oral 45 mg/kg, NCA, mean ± SD): 7.97 ± 0.782 h
Tmax ([1]; oral 45 mg/kg, NCA): 3 (2–5) h
CL [1, 6]: 0.0326 (5.58%) L/h
Q [1, 6]: 0.0404 (12.0%) L/h
Vc [1, 6]: 0.0287 (6.41%) L
Vp [1, 6]: 0.285 (8.21%) L
Absolute Bioavailability ([2]; oral dose 25 mg): 0.0362
Absolute Bioavailability ([2]; oral dose 50 mg): 0.0321
Absolute Bioavailability ([2]; oral dose 100 mg): 0.0191
Absolute Bioavailability ([2]; oral dose 200 mg): 0.0140
Absolute Bioavailability ([2]; oral dose 400 mg): 0.00814
IC50 [3]: 2.3 nM
SMILES: COc1cc(F)c(C(C)C)cc1C1=C(CN2C(=O)O[C@H](c3cc(C(F)(F)F)cc(C(F)(F)F)c3)[C@@H]2C)CC(C)(C)CC1 [CKD519]
